Data reported in the supplement of paper PMC10627819.

Columns and labels:
S. aureus DSM 20231 [1] = test: fitness (endpoint OD595 vs no drug) (fraction); higher = more growth
How it was run: (§1)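 Volumes were 30 µl per well, or 55 µl for S. pneumoniae, in 384-well plates inoculated at OD595 0.01. Media were TSB, LB Lennox or CY at 37 °C, and OD595 was read every 30 min for 14 h with first-reading background subtraction. Fitness is the ratio of optical density at stationary-phase entry to the robust mean of no-drug controls. That ratio is capped at 1.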

S. pneumoniae D39V [2] = test: as above
How it was run: as §1

B. subtilis 168 [3] = test: Bliss interaction score (quartile over a dose matrix) (fitness difference); higher = more antagonism (negative = synergy)
How it was run: (§2)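 Fitness was OD595 at entry into stationary phase divided by the plate's robust no-drug mean and capped at 1; single-drug fitness was inferred from combination data. The Bliss score is observed minus expected (product) fitness, summarised by quartiles over technical, biological and donor/recipient replicates.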

S. aureus DSM 20231 [4] = test: as above
How it was run: as §2

S. aureus Newman = test: as above
How it was run: as §2

S. pneumoniae D39V [5] = test: as above
How it was run: as §2

B. subtilis 168 [6] = test: fitness (endpoint OD595 vs no drug) (fraction); higher = more growth
How it was run: as §1
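Throughout, for Bliss interaction score (quartile over a dose matrix): first quartile when negative (synergy) and third quartile when positive (antagonism).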

CO/N=C(\C(=O)N[C@@H]1C(=O)N2C(C(=O)[O-])=C(C[N+]3(C)CCCC3)CS[C@H]12)c1csc(N)n1 [Cefepime] + CCC[C@@H]1C[C@@H](C(=O)N[C@@H]([C@H]2O[C@H](SC)[C@H](O)[C@@H](O)[C@H]2O)[C@@H](C)O)N(C)C1 [Lincomycin]
Settings	fitness
S. aureus DSM 20231 [1], first compound 0.125 µg/mL, partner 0.1 µg/mL	0.877
S. aureus DSM 20231 [1], first compound 0.125 µg/mL, partner 0.2 µg/mL	0.876
S. aureus DSM 20231 [1], first compound 0.25 µg/mL, partner 0.1 µg/mL	0.939
S. aureus DSM 20231 [1], first compound 0.25 µg/mL, partner 0.2 µg/mL	0.908
S. aureus DSM 20231 [1], first compound 0.5 µg/mL, partner 0.1 µg/mL	0.906
S. aureus DSM 20231 [1], first compound 0.5 µg/mL, partner 0.2 µg/mL	0.835
S. pneumoniae D39V [2], first compound 0.007 µg/mL, partner 0.2 µg/mL	0.734
S. pneumoniae D39V [2], first compound 0.007 µg/mL, partner 0.4 µg/mL	0.521
S. pneumoniae D39V [2], first compound 0.007 µg/mL, partner 0.8 µg/mL	0.198
S. pneumoniae D39V [2], first compound 0.0078 µg/mL, partner 0.215 µg/mL	0.909
S. pneumoniae D39V [2], first compound 0.0078 µg/mL, partner 0.43 µg/mL	0.823
S. pneumoniae D39V [2], first compound 0.0078 µg/mL, partner 0.86 µg/mL	0.593
S. pneumoniae D39V [2], first compound 0.014 µg/mL, partner 0.2 µg/mL	0.729
S. pneumoniae D39V [2], first compound 0.014 µg/mL, partner 0.4 µg/mL	0.523
S. pneumoniae D39V [2], first compound 0.014 µg/mL, partner 0.8 µg/mL	0.185
S. pneumoniae D39V [2], first compound 0.0155 µg/mL, partner 0.215 µg/mL	0.878
S. pneumoniae D39V [2], first compound 0.0155 µg/mL, partner 0.43 µg/mL	0.821
S. pneumoniae D39V [2], first compound 0.0155 µg/mL, partner 0.86 µg/mL	0.514
S. pneumoniae D39V [2], first compound 0.028 µg/mL, partner 0.2 µg/mL	0.674
S. pneumoniae D39V [2], first compound 0.028 µg/mL, partner 0.4 µg/mL	0.458
S. pneumoniae D39V [2], first compound 0.028 µg/mL, partner 0.8 µg/mL	0.133
S. pneumoniae D39V [2], first compound 0.031 µg/mL, partner 0.215 µg/mL	0.82
S. pneumoniae D39V [2], first compound 0.031 µg/mL, partner 0.43 µg/mL	0.723
S. pneumoniae D39V [2], first compound 0.031 µg/mL, partner 0.86 µg/mL	0.323

Settings	Bliss interaction score
B. subtilis 168 [3]	-0.0344
S. aureus DSM 20231 [4]	0.188
S. aureus Newman	0.0822
S. pneumoniae D39V [5]	0.2

CO/N=C(\C(=O)N[C@@H]1C(=O)N2C(C(=O)[O-])=C(C[N+]3(C)CCCC3)CS[C@H]12)c1csc(N)n1 [Cefepime] + COc1cc(Cc2cnc(N)nc2N)cc(OC)c1OC [Trimethoprim]
fitness, S. aureus DSM 20231 [1]
Settings	partner 0.125 µg/mL	partner 0.25 µg/mL	partner 0.5 µg/mL	partner 1 µg/mL
first compound 0.125 µg/mL	0.629	0.556	0.272	0.0708
first compound 0.25 µg/mL	0.631	0.573	–	0.0608
first compound 0.5 µg/mL	0.679	0.612	–	0.0509

Settings	Bliss interaction score
B. subtilis 168 [3]	0.0732
S. aureus DSM 20231 [4]	0.0714
S. aureus Newman	0.0778
S. pneumoniae D39V [5]	0.255

CN(C)C(=O)C(CCN1CCC(O)(c2ccc(Cl)cc2)CC1)(c1ccccc1)c1ccccc1 [Loperamide] + CCC(C)C1C(=O)NC(=C)C(=O)NC(C(=O)NC(CSCC(C(=O)N1)NC(=O)/C(=C/C)/NC(=O)C(C(C)CC)N)C(=O)NC2C(SCC(NC(=O)CNC(=O)C3CCCN3C2=O)C(=O)NC(CCCCN)C(=O)NC4C(SCC(NC(=O)CNC(=O)C(NC(=O)C(NC(=O)C(NC(=O)CNC4=O)C)CC(C)C)CCSC)C(=O)NC(CC(=O)N)C(=O)NC(CCSC)C(=O)NC(CCCCN)C(=O)NC5C(SCC6C(=O)NC(C(=O)NC(CSC(C(C(=O)N6)NC(=O)C(NC5=O)C)C)C(=O)NC(CO)C(=O)NC(C(C)CC)C(=O)NC(CC7=CN=CN7)C(=O)NC(C(C)C)C(=O)NC(=C)C(=O)NC(CCCCN)C(=O)O)CC8=CN=CN8)C)C)C)CC(C)C [Nisin]
fitness, one replicate, main component drawn
Settings	first compound 25 µg/mL	first compound 50 µg/mL	first compound 68.57 µg/mL	first compound 100 µg/mL
B. subtilis 168 [6], partner 0.5 µg/mL	0.435	0.0779	–	0.108
B. subtilis 168 [6], partner 1 µg/mL	0.11	0.0703	–	0.0347
B. subtilis 168 [6], partner 1.25 µg/mL	0.204	0.0476	–	0.0457
B. subtilis 168 [6], partner 1.6 µg/mL	0.1	0.0166	–	0.0155
B. subtilis 168 [6], partner 2 µg/mL	0.088	0.0708	–	0.0438
B. subtilis 168 [6], partner 2.5 µg/mL	0.0567	0.0575	–	0.0577
B. subtilis 168 [6], partner 3.2 µg/mL	0.0289	0.0291	–	0.0362
B. subtilis 168 [6], partner 4 µg/mL	0.0315	0.0232	–	0.0127
B. subtilis 168 [6], partner 5 µg/mL	0.0493	0.0332	–	0.0475
B. subtilis 168 [6], partner 6.4 µg/mL	0.035	0.0454	–	0.077
B. subtilis 168 [6], partner 8 µg/mL	0.0084	0.0257	–	0.0094
B. subtilis 168 [6], partner 16 µg/mL	0.0263	0.037	–	0.0142
S. pneumoniae D39V [2], partner 1.6 µg/mL	–	–	0.001	–
S. pneumoniae D39V [2], partner 3.2 µg/mL	–	–	0	–
S. pneumoniae D39V [2], partner 6.4 µg/mL	–	–	0	–

S. pneumoniae D39V [2], main component drawn
Settings	fitness
first compound 17.14 µg/mL, partner 1.6 µg/mL	0.0272
first compound 17.14 µg/mL, partner 3.2 µg/mL	0.0109
first compound 17.14 µg/mL, partner 6.4 µg/mL	0.0062
first compound 20 µg/mL, partner 0.4275 µg/mL	0.827
first compound 20 µg/mL, partner 1.71 µg/mL	0.063
first compound 34.28 µg/mL, partner 1.6 µg/mL	0.0162
first compound 34.28 µg/mL, partner 3.2 µg/mL	0
first compound 34.28 µg/mL, partner 6.4 µg/mL	0.0091
first compound 40 µg/mL, partner 0.4275 µg/mL	0.145
first compound 40 µg/mL, partner 0.855 µg/mL	0.0969
first compound 40 µg/mL, partner 1.71 µg/mL	0.0997
first compound 80 µg/mL, partner 0.4275 µg/mL	0.0928
first compound 80 µg/mL, partner 0.855 µg/mL	0.073
first compound 80 µg/mL, partner 1.71 µg/mL	0.102

main component drawn
Settings	Bliss interaction score
B. subtilis 168 [3]	-0.126
S. aureus DSM 20231 [4]	-0.423
S. aureus Newman	-0.076
S. pneumoniae D39V [5]	-0.175

CN(C)C(=O)C(CCN1CCC(O)(c2ccc(Cl)cc2)CC1)(c1ccccc1)c1ccccc1 [Loperamide] + CCN(CC)CCOC(=O)c1ccc(N)cc1 [Procaine]
fitness
Settings	partner 85.5 µg/mL	partner 171 µg/mL	partner 342 µg/mL
B. subtilis 168 [6], first compound 25 µg/mL	0.801	0.84	0.763
B. subtilis 168 [6], first compound 50 µg/mL	0.0504	0.0536	0.051
B. subtilis 168 [6], first compound 100 µg/mL	0.0164	0.016	0.052
S. pneumoniae D39V [2], first compound 17.14 µg/mL	0.941	0.905	0.903
S. pneumoniae D39V [2], first compound 34.28 µg/mL	0.97	0.853	0.923

fitness, S. pneumoniae D39V [2], one replicate
Settings	first compound 20 µg/mL	first compound 40 µg/mL	first compound 68.57 µg/mL	first compound 80 µg/mL
partner 85.5 µg/mL	≥ 1	≥ 1	0.919	0.999
partner 171 µg/mL	≥ 1	≥ 1	0.874	≥ 1
partner 342 µg/mL	≥ 1	0.986	0.88	≥ 1

Settings	Bliss interaction score
B. subtilis 168 [3]	-0.0865
S. aureus DSM 20231 [4]	0.127
S. aureus Newman	0.0372
S. pneumoniae D39V [5]	-0.0548

CN(C)C(=O)C(CCN1CCC(O)(c2ccc(Cl)cc2)CC1)(c1ccccc1)c1ccccc1 [Loperamide] + CN1C2=CC=CC=C2N=C3C1=CC=CC3=O [Pyocyanin]
Settings	fitness
B. subtilis 168 [6], first compound 25 µg/mL, partner 1.25 µg/mL	0.819
B. subtilis 168 [6], first compound 25 µg/mL, partner 2.5 µg/mL	0.78
B. subtilis 168 [6], first compound 25 µg/mL, partner 5 µg/mL	0.632
B. subtilis 168 [6], first compound 50 µg/mL, partner 5 µg/mL	0.215
B. subtilis 168 [6], first compound 100 µg/mL, partner 1.25 µg/mL	0.062
B. subtilis 168 [6], first compound 100 µg/mL, partner 2.5 µg/mL	0.0311
B. subtilis 168 [6], first compound 100 µg/mL, partner 5 µg/mL	0.0308
S. pneumoniae D39V [2], first compound 17.14 µg/mL, partner 0.325 µg/mL	≥ 1
S. pneumoniae D39V [2], first compound 17.14 µg/mL, partner 0.65 µg/mL	0.984
S. pneumoniae D39V [2], first compound 17.14 µg/mL, partner 1.3 µg/mL	0.797
S. pneumoniae D39V [2], first compound 34.28 µg/mL, partner 0.325 µg/mL	0.993
S. pneumoniae D39V [2], first compound 34.28 µg/mL, partner 0.65 µg/mL	0.945
S. pneumoniae D39V [2], first compound 34.28 µg/mL, partner 1.3 µg/mL	0.729

fitness, S. pneumoniae D39V [2], one replicate
Settings	first compound 20 µg/mL	first compound 40 µg/mL	first compound 68.57 µg/mL	first compound 80 µg/mL
partner 0.325 µg/mL	≥ 1	≥ 1	≥ 1	≥ 1
partner 0.65 µg/mL	≥ 1	≥ 1	0.964	0.995
partner 1.3 µg/mL	–	–	0.748	–

Settings	Bliss interaction score
B. subtilis 168 [3]	0.103
S. aureus DSM 20231 [4]	-0.0519
S. aureus Newman	-0.0463
S. pneumoniae D39V [5]	0.0757
